In general, Ki refers to the equilibrium dissociation constant of an inhibitor or competing ligand from its target. Broadly, the IC50 is the concentration at which inhibition is half-maximal. A higher IC50 goes with weaker potency.

We go through six compounds from patent publication US5444042A, “Method of treatment of neurodegeneration with calpain inhibitors” (Cortex Pharmaceuticals, priority 1994, dated 1995).

For one series, the system named is Calpain within platelets. The series is described as follows: Platelet membrane permeation assay, spectrin proteolysis (Examples 4A, 4B). Format: cell-based, rat. The note with it: for effect on intracellular (platelet) Calpain: concentration not given; for inhibition of Calpain within platelets / platelet assay, semi-quantitative: 100 μM; for inhibition of Calpain within platelets: A23187 1 μM. The procedure: Platelets were isolated by a modification of the method of Ferrell and Martin, J Biol. Chem., 264:20723-20729 (1989), the disclosure of which is hereby incorporated by reference. Blood (15-20 ml) was drawn from male Sprague-Dawley rats into 100 mM EDTA-citrate containing 10 units heparin, and centrifuged 30 minutes at 1600 rpm at room temperature. The plasma was resuspended in 15 ml buffer 1 (136 mM NaCl, 2.7 mM KCl, 0.42 mM NaH2 PO4, 12 mM NaHCO3, 2 mM MgCl2, 2 mg/ml BSA (Sigma), 5.6 mM glucose, 22 mM Na3 Citrate pH 6.5) and platelets were isolated at 2200 rpm at room temperature of 25 minutes. Platelets were resuspended to 10^7 cells/ml in buffer 2 (136 mM NaCl, 2.7 mM KCl, 0.42 NaH2 PO4, 12 mM NaHCO3, 2 mM MgCl, 1 mg/ml BSA, 5.6 mM glucose, 20 mM HEPES pH 7.4) and allowed to "rest" for a minimum of 10 minutes at room temperature before use.
Platelets were incubated for 5 minutes in the presence of inhibitor. In order to provide sufficient intracellular calcium to activate Calpain, the calcium ionophore A23187 was added to a final concentration of 1 μM. After a further 5 minute incubation, the platelets were harvested by centrifugation (1 min 10,000×g) and resuspended in 10% sodium dodecyl sulfate, 10 mM Tris pH=8.0, 5% β-mercaptoethanol, 0.02% bromophenol blue, and heated to 95° C. for 5 min. Samples were subjected to SDS-PAGE on 6% mini gels and transferred to nitrocellulose (Schleicher and Schuell BAS3) for 2 hours at 100 mA/gel in an LKB Novablot. Filters were blocked for 10 minutes in 0.25% gelatin, 1% BSA, 0.25% Triton X100, 0.9% NaCl, 10 mM Tris-Cl pH 7.5, incubated overnight in the same solution containing antibody to rat spectrin, washed 3×10 minutes with 10 mM Tris-Cl pH 7.5, 0.5 % Triton X100, incubated 4 hours in wash buffer plus alkaline phosphatase conjugated goat anti-rabbit antibody (Biorad), and washed as above. Filters were developed using the Biorad AP conjugate substrate kit. Spectrin immunoreactivity on the filters was quantitated by densitometry.

Series [1] addresses T1, Papain (Carica papaya, UniProt P00784).
T1 sequence (P00784 134-345): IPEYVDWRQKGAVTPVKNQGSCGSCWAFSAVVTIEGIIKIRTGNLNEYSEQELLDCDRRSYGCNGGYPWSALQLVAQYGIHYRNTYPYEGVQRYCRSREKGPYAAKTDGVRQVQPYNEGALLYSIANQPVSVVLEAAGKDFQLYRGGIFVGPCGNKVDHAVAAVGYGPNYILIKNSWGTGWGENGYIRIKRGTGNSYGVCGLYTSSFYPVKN
The series is described as follows: Papain inhibition, Ki by Dixon plot (Table PKC1). Format: biochemical. The settings on record: 5 mM cysteine, 25° C. The procedure:
(§1) Various concentrations of inhibitors in dimethylsulfoxide (DMSO) were added to the assay mixture, which contained buffer and substrate. The reaction was started by the addition of the enzyme and the hydrolysis rates were followed spectrophotometrically or fluorimetrically. 88 mM KH2 PO4, 12 mM Na2 HPO4, 1.33 mM EDTA, 2.7 mM cysteine, pH 6.0 was used as a buffer for cathepsin B; and 20 mM Hepes, 10 mM CaCl2, 10 mM β-mercaptoethanol, pH 7.2 buffer was utilized for calpain I and calpain II.
(§2) All peptide thioester hydrolysis rates were measured with assay mixtures containing 4,4'-dithiodipyridine [e324=19800 M-1 cm-1; Grasetti & Murray, Arch. Biochem. Biophys. 119, pp 41-49 (1967)]. Papain was assayed with Bz-Arg-AMC or Bz-Arg-NA [Kanaoka et al., Chem. Pharm. Bull. 25, 3126-3128 (1977)], and the AMC (7-amino-4-methylcoumarin) release was followed fluorimetrically (excitation at 380 nm, and emission at 460 nm). Cathepsin B was assayed with Z-Arg-Arg-AFC [Barrett and Kirschke, Methods Enzymol. 80, 535-561 (1981)], and the AFC (7-amino-4-trifluoromethylcoumarin) release was followed fluorimetrically (excitation at 400 nm, and emission at 505 nm). Calpain I from human erythrocytes and calpain II from rabbit were assayed using Suc-Leu-Tyr-AMC [Sasaki et al., J. Biol. Chem. 259, 12489-12494 (1984), hereby incorporated by reference], and the AMC (7-amino-4-methylcoumarin) release was followed fluorimetrically (excitation at 380 nm, and emission at 460 nm). Enzymatic hydrolysis rates were measured at various substrate and inhibitor concentrations, and Ki values were determined by Dixon plot.
The inhibition constants for papain shown in Table PKC1 were measured in 0.05M Tris-HCl, pH 7.5 buffer, containing 2 mM EDTA, 5 mM cysteine (freshly prepared), 1% DMSO, at 25° C., using N^α -Benzoyl-Arg-AMC as a substrate, except that those values of inhibition constants for papain marked with an "e" in Table PKC1 were measured in 50 mM Tris-HCl, pH 7.5 buffer, containing 20 mM EDTA, 5 mM cysteine, 9% DMSO, at 25° C., using N^α -Benzoyl-Arg-NA as a substrate.

The test system of series [2] is Calpain in crude brain extracts. Briefly: Ca2+-stimulated spectrin proteolysis in crude brain extracts (Example 2). In kind it is biochemical. The settings on record: 100 μM. The procedure: The activity of Calpain in crude brain extracts was measured by examining the Ca^2+ -stimulated proteolysis of the endogenous substrate spectrin. Brain tissue was homogenized in 10 mM Tris pH=7.4, 0.32M sucrose, 1 mM EGTA, 1 mM dithiothreitol and the nuclei and debris removed by low speed centrifugation. […] Proteolysis of spectrin was evaluated by western blot as described by Seubert, et at. (Brain Research, 459:226-232, 1988), the disclosure of which is hereby incorporated by reference. Briefly, a known quantity of a spectrin-containing sample treated with Calpain is separated by SDS-PAGE and immunoblotted with anti-spectrin antibody. The amount of spectrin immunoreactivity found corresponding to the characteristic BDP's is indicative of the amount of […] activity present in the sample. An examplary method for quantitating BDP's is to assay Spectrin BDP's by homogenizing brain parts in 20 mM Tris pH=7.2, 0.32M sucrose, 50 μM Ac-Leu-Leu-nLeu-H on ice. Homogenates are then mixed 1:1 with 10% SDS, 5% β-mercaptoethanol, 10% glycerol, 10 mM Tris pH=8.0, 0.5% bromophenolblue, heated to 95° C., and subjected to electrophoresis in 41/2% polyacrylamide gels. The proteins in the gels are transferred to nitrocellulose and the spectrin and BDP's detected using a rabbit polyclonal anti-spectrin antibody and established immunodetection methods. The amount of spectrin and BDP's in each sample can be quantitated by densitrometric scanning of the developed nitrocellulose.

The target in series [3] is T2, Cathepsin B (Bos taurus, UniProt P07688). The series is described as follows: Cathepsin B inhibition, Z-Arg-Arg-AFC (Table PKC1). Format: biochemical. The note with it: pH 6.0 phosphate buffer, substrate Z-Arg-Arg-AFC; read-out: Ki CB (Cathepsin B). The procedure: as §1, §2
Another series has as its target Chym (Bos taurus, UniProt P00766). Briefly: Chym KI (Table 1B(ii)). Format: biochemical. The text has this: (§3) We tested the ability of an additional group of Peptide Keto-Compounds to inhibit several proteases in order to evaluate their specificity for Calpain.
A further series concerns the target Calpain II. The series is described as follows: Calpain II KI (Table 1B(ii)). In kind it is biochemical.
Source text: as §3

For series [4], the target named is T2, Cathepsin B. Briefly: Cathepsin B KI (Table 1B(ii)). In kind it is biochemical. The settings on record: read-out: KI CathB.
Source text: as §3

Series [5] addresses T1, Papain. Briefly: Papain KI (Table 1B(ii)). In kind it is biochemical.
Source text: as §3

For a further series, the target named is T3, Calpain I (Homo sapiens, UniProt P07384).
T3 sequence (P07384 1-714): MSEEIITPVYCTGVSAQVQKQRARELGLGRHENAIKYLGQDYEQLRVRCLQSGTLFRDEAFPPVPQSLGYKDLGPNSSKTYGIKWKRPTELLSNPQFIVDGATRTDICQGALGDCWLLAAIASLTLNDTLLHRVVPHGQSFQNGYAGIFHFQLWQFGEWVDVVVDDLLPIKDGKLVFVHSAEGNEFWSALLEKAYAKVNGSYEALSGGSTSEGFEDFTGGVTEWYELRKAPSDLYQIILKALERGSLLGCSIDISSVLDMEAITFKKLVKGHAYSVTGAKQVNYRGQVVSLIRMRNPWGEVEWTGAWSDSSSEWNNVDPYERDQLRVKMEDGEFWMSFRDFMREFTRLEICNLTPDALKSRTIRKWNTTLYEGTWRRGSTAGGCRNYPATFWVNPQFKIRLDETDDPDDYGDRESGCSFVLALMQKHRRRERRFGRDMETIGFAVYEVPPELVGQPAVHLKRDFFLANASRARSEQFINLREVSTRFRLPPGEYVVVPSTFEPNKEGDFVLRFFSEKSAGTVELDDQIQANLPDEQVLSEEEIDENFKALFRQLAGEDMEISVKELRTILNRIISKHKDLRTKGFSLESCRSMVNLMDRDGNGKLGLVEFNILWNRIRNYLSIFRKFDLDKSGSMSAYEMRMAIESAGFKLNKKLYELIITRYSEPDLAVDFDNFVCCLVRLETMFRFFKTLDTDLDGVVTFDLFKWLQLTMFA
T3 sequence (P04632 1-268 partner): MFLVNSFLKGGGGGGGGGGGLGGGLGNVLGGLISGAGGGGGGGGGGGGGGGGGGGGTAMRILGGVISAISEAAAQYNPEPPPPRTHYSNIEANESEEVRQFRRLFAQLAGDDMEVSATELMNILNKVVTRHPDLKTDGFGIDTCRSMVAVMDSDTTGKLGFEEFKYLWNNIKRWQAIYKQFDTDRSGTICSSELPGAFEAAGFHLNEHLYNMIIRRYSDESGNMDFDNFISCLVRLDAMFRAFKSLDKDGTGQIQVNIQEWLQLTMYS
Briefly: Calpain I KI (Table 1B(ii)). In kind it is biochemical. The note with it: Table 1B(ii).
Source text: as §3

The next series deals with PP Elastase (Sus scrofa, UniProt P00772). Briefly: PP Elastase KI (Table 1B(ii)). In kind it is biochemical.
Source text: as §3

A further series is described as follows: Stability in plasma. In kind it is in vitro ADME. The settings on record: unit assumed. The text has this: We determined the haft-life of several Peptide Keto-Compounds in both plasma and liver homogenates.
[6] abbreviates: 50 mM Tris-HCl pH 7.5, 20 mM EDTA, 9% DMSO, substrate Nα-Benzoyl-Arg-NA, read-out: Ki P (Papain), values marked e.

Sequence of PP Elastase (P00772 27-266): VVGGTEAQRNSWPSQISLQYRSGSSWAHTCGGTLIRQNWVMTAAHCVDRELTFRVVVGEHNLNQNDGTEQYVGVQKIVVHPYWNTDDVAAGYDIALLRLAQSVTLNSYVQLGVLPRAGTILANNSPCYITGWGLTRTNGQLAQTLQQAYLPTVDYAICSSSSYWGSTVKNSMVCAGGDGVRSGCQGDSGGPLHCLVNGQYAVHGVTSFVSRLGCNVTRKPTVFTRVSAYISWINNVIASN

As to `CCOC(=O)C(=O)C(Cc1ccccc1)NC(=O)c1ccccc1` (racemic) [Bz-DL-Phe-COOEt, Bz-DL-Phe-CO2 Et], the “effect on intracellular (platelet) Calpain” value with Calpain within platelets is “failed to exhibit Calpain inhibitory activity”. Besides, the values for the inhibition constant (Ki) on Papain [1] (setting [6]) and on Cathepsin B [3] were 500 µM and 64 µM, respectively. For the same compound, the “inhibition of spectrin proteolysis in crude brain extracts” value in [2] is listed as “significant inhibition”.
As to `COC(=O)CCC(=O)NC(C(=O)N1CCCC1C(=O)NC(Cc1ccccc1)C(=O)C(=O)OC)C(C)C` (racemic) [MeO-Suc-Val-Pro-DL-Phe-COOMe, MeO-Suc-Val-Pro-DL-Phe-CO2 Me], in the series with Calpain within platelets, the “effect on intracellular (platelet) Calpain” value is listed as “failed to exhibit Calpain inhibitory activity”. The inhibition constant Ki amounted to 1.1 µM at Papain [1] (0.05M Tris-HCl pH 7.5, 2 mM EDTA, 1% DMSO, substrate Nα-Benzoyl-Arg-AMC, read-out: Ki P (Papain)); 2.9 µM on Papain [1] (setting [6]); 0.1 µM at Cathepsin B [3]. Besides, in series [2], the “inhibition of spectrin proteolysis in crude brain extracts” value was “significant inhibition”.
`CCOC(=O)C(=O)C(Cc1ccc(Cl)cc1)NC(=O)C(CC(C)C)NC(=O)OCc1ccccc1` (stereo not shown) [Z-Leu-4-Cl-Phe-COOEt]: the Ki on Chym was 0.9 µM; at Calpain II it was 0.4 µM; at Cathepsin B [4], 50 µM; on Papain [5], 150 µM; at Calpain I it was less than 4 µM; at PP Elastase, more than 100 µM. Also, in the series with Calpain within platelets, the “inhibition of Calpain within platelets” value is “significant inhibition”. In addition, the “platelet assay, semi-quantitative” value in the series with Calpain within platelets is “+”.
With `CCCCOC(=O)C(=O)C(CC)NC(=O)C(CC(C)C)NC(=O)OCc1ccccc1` (stereo not drawn) [Z-Leu-Abu-COOnBu, Z-Leu-Abu-CO2 Bu], the Ki on Chym is more than 100 µM; at Cathepsin B [4] it was 4 µM; on Papain [5] it was 10 µM; at PP Elastase, 25 µM. In addition, in the series with Calpain within platelets, the “inhibition of Calpain within platelets” value is on record as “significant inhibition”. In addition, the IC50 in the series on Calpain within platelets (concentration at which 50% of the Calpain activation present in controls occurred) turned out to be 28 µM.
For the compound `CCOC(=O)C(=O)[C@H](Cc1ccccc1)NC(=O)[C@H](CC(C)C)NC(=O)[C@H](CC(C)C)NC(=O)OCc1ccccc1` [Z-Leu-Leu-Phe-COOEt], the Ki was 0.26 µM at Chym; 1.9 µM on Calpain II; 42 µM on Cathepsin B [4]; 15 µM on Papain [5]; 1.4 µM at Calpain I; more than 100 µM on PP Elastase. In the series with Calpain within platelets, the “inhibition of Calpain within platelets” value is listed as “significant inhibition”. Also, the “platelet assay, semi-quantitative” value with Calpain within platelets is given as “++”.
`CC(C)C[C@H](NC(=O)OCc1ccccc1)C(=O)N[C@@H](Cc1ccccc1)C(=O)C(=O)OCc1ccccc1` [Z-Leu-Phe-COOBz, Z-Leu-Phe-CO2 Bzl]: the inhibition constant Ki on Chym is 1.6 µM; on Calpain II, 1.6 µM; on Cathepsin B [4] it was 45 µM; at Papain [5], 45 µM; at Calpain I, 3.4 µM; on PP Elastase, more than 100 µM. In the series “Stability in plasma”, this compound had a t1/2 plasma of 1.9 min. Moreover, the “inhibition of Calpain within platelets” value in the series with Calpain within platelets is listed as “significant inhibition”. Moreover, the “platelet assay, semi-quantitative” value with Calpain within platelets is reported as “++”.
